In patent US4493845A, “Antibiotic AM-3603” (Kitasato Kenkyusho, priority 1980, dated 1985):
Values after ≈ are worked out from the molar mass of the structure shown. Where two headings read alike, the source gives them in different places.

Assays:
Format in all cases: cell-based
Sclerotinia cinerea = assay: Comparison of anti-phytopathogenic activity, MIC; details: Glucosepotato agar, 2-3 days
Botrytis cinerea = assay: Comparison of anti-phytopathogenic activity, MIC; details: Glucosepotato agar, 2-3 days
Pellicularia sasakii = assay: Comparison of anti-phytopathogenic activity, MIC
Alternaria kikuchiana = assay: Comparison of anti-phytopathogenic activity, MIC; details: Glucosepotato agar, 2-3 days
Piricularia oryzae = assay: microbe, parasite or virus in culture; details: Glucosepotato agar, 2-3 days
[1] = B, laboratory stock culture, Glucosepotato agar, 2-3 days
[2] = A, isolate from infected plant, Glucosepotato agar, 2-3 days

Row | Compound | MIC (Sclerotinia cinerea; Sclerotinia, A, isolate from infected plant) [µg/mL] | MIC (Sclerotinia cinerea; Sclerotinia, B, laboratory stock culture) [µg/mL] | MIC (Botrytis cinerea; Botrytis cinerea, A, isolate from infected plant) [µg/mL] | MIC (Botrytis cinerea; Botrytis cinerea, B, laboratory stock culture) [µg/mL] | MIC (Pellicularia sasakii) [µg/mL] | MIC (Pellicularia sasakii; [1]) [µg/mL] | MIC (Alternaria kikuchiana; Alternaria kikuchiana, A, isolate from infected plant) [µg/mL] | MIC (Alternaria kikuchiana; Alternaria kikuchiana, B, laboratory stock culture) [µg/mL] | MIC (Piricularia oryzae; A, isolate from infected plant) [µg/mL] | MIC (Piricularia oryzae; B, laboratory stock culture) [µg/mL] | MIC (Sclerotinia cinerea; A, isolate from infected plant) [µg/mL] | MIC (Sclerotinia cinerea; B, laboratory stock culture) [µg/mL] | MIC (Botrytis cinerea; A, isolate from infected plant) [µg/mL] | MIC (Botrytis cinerea; B, laboratory stock culture) [µg/mL] | MIC (Pellicularia sasakii; [2]) [µg/mL] | MIC (Alternaria kikuchiana; A, isolate from infected plant) [µg/mL] | MIC (Alternaria kikuchiana; B, laboratory stock culture) [µg/mL]
1 | CN(CCC(N)CC(=O)NC1C=CC(n2ccc(N)nc2=O)OC1C(=O)O)C(=N)N (stereo not shown) [Blasticidin S] | 50 (≈ 118 µM) | 25 (≈ 59.2 µM) | 50 (≈ 118 µM) | 100 (≈ 237 µM) | > 100 | > 100 | 50 (≈ 118 µM) | 12.5 (≈ 29.6 µM) | > 100 | 25 (≈ 59.2 µM) |  |  |  |  |  |  | 
2 | C[C@@H](N)C(=O)N[C@H]1CO[C@H](O)[C@H](N)[C@H]1O [Prumycin] |  |  |  |  |  | > 100 |  |  | > 100 | 100 (≈ 456 µM) | 1.56 (≈ 7.12 µM) | 6.25 (≈ 28.5 µM) | 100 (≈ 456 µM) | 50 (≈ 228 µM) | > 100 | > 100 | 50 (≈ 228 µM)
3 | Venturicidin |  |  |  |  |  | > 25 |  |  | < 0.03 | < 0.03 | 0.78 | 0.78 |  | > 25 | 1.56 |  | > 25
